Test results as given in PMC10064330, “Reversible Dual-Covalent Molecular Locking of the 14-3-3/ERRγ Protein–Protein Interaction as a Molecular Glue Drug Discovery Approach” (Journal of the American Chemical Society, 2023).

Molecular target: T1, 14-3-3γ/ERRγ complex (Homo sapiens, UniProt P61981+P62508)
T1 construct: made in house; host or cells: E. coli NiCo21 (DE3)
Test: Time-dependent intact MS in competitive mixture of nine client phosphopeptides
Assay type: biochemical
From the text: 14-3-3 proteins interact with many phosphorylated proteins, with differing affinities and cellular concentrations.[44],[49],[50] On the cellular level, there is a large reservoir of 14-3-3, typically in vast excess to its binding partners. Notwithstanding, we were interested in developing a testable model for the effect of the molecular locking on a PPI network. To investigate the intricacies of selective stabilization of the 14-3-3/ERRγ interaction in a complex matrix, we performed time-dependent intact MS experiments in a competitive environment of excess of 14-3-3 client phosphopeptides. A mixture of 14-3-3 (1 eq.), molecular lock 5 (10 eq.), ΕRRγ (2 eq.), and eight additional client phosphopeptides (8 × 2 eq.) was incubated, and incremental samples were taken, quenched with sodium cyanoborohydride, and measured (Figure 5). […] The peptide panel contained four higher-affinity and three lower-affinity 14-3-3 binding clients, relative to ERRγ, (Figure 5b) and contained +1 Cys-containing peptides RND3 and PKR.
Figure S23a. QTOF-MS analysis of 14-3-3/peptide mix/5. […] Calculated mass 14-3-3γ apo:
31542.8 Da. Calculated mass covalently crosslinked 14-3-3γ/ERRγ/5 complex: 33019.5 Da. […]
Different Scanning Fluorimetry (DSF) assays were performed using 40 µL samples containing 5 µM 14-3-3γ, 50 µM ERRγ pS179 9-mer peptide, 200 µM compound (or 1% DMSO) and 5x ProteoOrange (Lumiprobe, 5000x stock in DMSO) in 10 mM Hepes, 150 mM NaCl, 50 µM TCEP (pH 8.0). […] Fluorescence intensity was determined using excitation 470/40 nm and emission 570/20 nm filters. Based on these melting curves, the negative derivative melting curve is obtained from which the melting temperature Tm was determined. ΔTm values represent the differences in melting temperature relative to the DMSO control. All described melting temperatures are based on three independent experiments from which the average and standard deviations were determined using excel. […]

T1 sequence (P61981 whole entry, other chains not shown): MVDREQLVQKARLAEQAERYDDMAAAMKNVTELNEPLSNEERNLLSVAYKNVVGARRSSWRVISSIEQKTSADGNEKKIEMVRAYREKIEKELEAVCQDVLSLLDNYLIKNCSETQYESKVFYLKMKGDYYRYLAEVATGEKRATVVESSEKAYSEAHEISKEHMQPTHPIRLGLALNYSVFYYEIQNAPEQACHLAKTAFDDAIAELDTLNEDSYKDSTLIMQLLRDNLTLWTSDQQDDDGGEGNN

CN(C)CCSSCCN(C)C(=O)c1ccc(C=O)c(F)c1 [compound 5]
maximum crosslinking efficiency (14-3-3γ/ERRγ/5 complex formation) (14-3-3γ 5 μM, ERRγ 10 μM, 5 50 μM, eight additional phosphopeptides 10 μM each): 35% | increase in total number of 14-3-3/ERRγ complexes in solution (intact MS 35% vs modeled 2.4% ERRγ bound): 15 fold | reduction in crosslinking capacity, peptide mix vs ERRγ in isolation (peptide competitors relative to ERRγ 8:1): ~2 fold
